Experiments:
E. coli IMPDH enzyme = E. coli IMPDH enzyme (Escherichia coli, UniProt P0ADG7); test: IMPDH Activity Inhibition Assay; type: biochemical; details: for activity at 25 µM: percent remaining activity of E. coli IMPDH enzyme at 25 μM inhibitor (I) and 14 nM enzyme (E); for activity at 10 µM: percent remaining activity of E. coli IMPDH enzyme at 10 μM inhibitor (I) and 55 nM enzyme (E)
Protocol: IMP dehydrogenase activity was assayed according to the method reported by Hedstrom. [Hedstrom, L. et al., Biochemistry, 39, pp. 9804-9810 (2000), the disclosure of which is herein incorporated by reference]. Table 1 below lists the percent remaining activity of E. coli IMPDH enzyme (E) at either 25 μM inhibitor (I) and 14 nM enzyme (E) or 10 μM inhibitor (I) and 55 nM enzyme (E). “ND” means no data.

bacterial IMPDH = details: Hedstrom et al., Curr. Med. Chem. 1999; cited from earlier work

Sequence of E. coli IMPDH enzyme (P0ADG7 whole entry): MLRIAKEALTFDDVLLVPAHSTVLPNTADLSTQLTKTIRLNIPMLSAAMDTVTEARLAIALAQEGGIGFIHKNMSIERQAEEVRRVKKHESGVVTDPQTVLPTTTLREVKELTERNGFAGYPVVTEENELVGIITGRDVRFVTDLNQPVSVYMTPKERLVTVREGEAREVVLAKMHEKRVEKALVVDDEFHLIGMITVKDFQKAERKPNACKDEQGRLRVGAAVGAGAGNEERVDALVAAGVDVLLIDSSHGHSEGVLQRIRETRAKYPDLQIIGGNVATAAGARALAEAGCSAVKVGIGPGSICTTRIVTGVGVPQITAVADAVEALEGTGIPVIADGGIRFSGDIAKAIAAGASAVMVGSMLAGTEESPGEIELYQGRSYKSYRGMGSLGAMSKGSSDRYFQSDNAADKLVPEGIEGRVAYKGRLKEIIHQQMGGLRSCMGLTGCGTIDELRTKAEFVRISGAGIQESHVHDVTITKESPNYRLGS

SMILES | activity at 10 µM (E. coli IMPDH enzyme) [%] | also measured
O=C(Nc1nc2ccccc2[nH]1)c1ccc2cc(C(=O)Nc3nc4ccccc4[nH]3)ccc2c1 [Compound 6] | – | activity at 25 µM (E. coli IMPDH enzyme): 90%
CCOc1cccc2sc(NC(=O)c3cc4ccccc4cc3OC)nc12 [Compound 7] | – | activity at 25 µM (E. coli IMPDH enzyme): 76%
Cc1cccc(NC(=O)c2ccc3cc(C(=O)Nc4cccc(C)n4)ccc3c2)n1 [Compound 8] | 87 | –
COc1cc2ccccc2cc1C(=O)Nc1nc(-c2c(OC)ccc3ccccc23)cs1 [Compound 9] | 100 | –
COc1ccc(-c2csc(NC(=O)c3cc4ccccc4cc3OC)n2)cc1OC [Compound 10] | 73 | –
O=C(Nc1nccs1)c1ccc2cc(C(=O)Nc3nccs3)ccc2c1 [Compound 11] | 97 | –
O=C(Nc1nncs1)c1ccc2cc(C(=O)Nc3nncs3)ccc2c1 [Compound 12] | 100 | –
COc1c(C)c2c(c(O)c1C/C=C(\C)CCC(=O)O)C(=O)OC2 [mycophenolic acid] | – | fold less potent against bacterial IMPDH versus mammalian IMPDH (bacterial IMPDH): > 1000 fold
